Drawing on the SangsterLogP compilation, this text covers logP and logD for 131 compounds.

The nature of this series: method code SF, from Hansch, C. & Leo, A. (1987). Log P database [Dataset]. Pomona College Medicinal Chemistry Project.

A word on the logP: it is the decadic logarithm of the partition coefficient of the neutral form, usually between octanol and water. A lower logP goes with a more hydrophilic compound. By logD is commonly meant lipophilicity at a set pH, counting ionised and neutral species. Lower therefore signals lower lipophilicity.

`N#CC(C#N)=C(c1ccccc1)c1ccccc1` yielded a lipophilicity (logP) of 3.55. Regarding `Cc1ccc2c(ccc[n+]2[O-])c1`, the logP amounted to 0.95. Still for that read-out and setting: with `CC=CC(=O)Nc1ccc(Cl)c(Cl)c1` the figure was 3.63; with `NC(=O)c1cccc(Br)c1`, 1.65.

Consider `COP(=O)(NC(C)(C)C)Oc1cc(Cl)c(Cl)cc1Cl` (stereo unspecified), for which the lipophilicity (logP) stood at 3.83. The same measure, in the same setting: the result for `CCCCl` reads 2.04; that for `NC(=O)c1ccc(N)cc1`, -0.41.

Consider `COc1ccccc1C=CC(=O)ON=Cc1ccc(OCCO)c(OC)c1`, for which the logP was 3.56. Same read-out and setting: with `COc1cc(C=NOC(=O)COc2ccccc2)ccc1OCCO` the figure was 2.1. On to `CCCCN(C)N=Nc1cn([C@@H]2O[C@H](CO)[C@@H](O)[C@H]2O)c(=O)n(C)c1=O`, for which the log partition coefficient (logP) is -0.45.

Consider `CN(C)c1nc2ccccc2o1`, for which the lipophilicity (logP) stood at 2.1. The compound `O=C(O)c1ccccc1S` returned a logD (pH 1.0) of 2.39. As to `CC(=O)Nc1cccc(C#N)c1`, the logP stood at 1.2. In the case of `CCN(CC)CC(O)c1ccccc1` (stereo unspecified), the logD (pH 13.0) amounted to 2.02. `OCCOCCN1CCN(CCCN2c3ccccc3Sc3ccc(C(F)(F)F)cc32)CC1`: the logP was determined as 4.49. The compound `CC1=C(C(=O)O)N2C(=O)[C@@H](NC(=O)Cc3cccs3)[C@H]2SC1` displayed a pH-dependent lipophilicity (logD) (pH 3.0) of 0.61. `Cn1ncc2cc([N+](=O)[O-])cc([N+](=O)[O-])c21` displayed a log partition coefficient (logP) of 1.63. `Cc1c([N+](=O)[O-])cc(C(N)=O)cc1[N+](=O)[O-]`: the logP came to 0.68. With `C=CCc1cccc2c(=O)c(C)c(-c3ccccc3)oc12`, the logP was 4.67. As for `COc1cccc2c1C(=O)c1c(O)c3c(c(O)c1C2=O)C[C@@](O)(C(=O)CO)C[C@@H]3O`, the logP was 2.74.

`COc1cccc(OC)c1OC`: the logP worked out at 1.53. Still for that read-out and setting: with `CON(C)C(=O)Nc1cccc(OCc2ccccc2)c1` the figure was 3.11; with `O=[N+]([O-])/C=C/c1ccc(Cl)cc1Cl`, 3.26; with `CN(C(=O)CCOS(C)(=O)=O)c1ccc(S(=O)(=O)N(C)C)cc1`, -0.68. As to `COC(=O)c1ccc(OC)cc1`, the logD (pH 7.0) came to 2.27. Compound `COc1cc(O)cc(OC)c1` showed a logP of 1.64.

In turn, `CC(=O)C(=Cc1ccc(C)cc1)C(C)=O` registered a log partition coefficient (logP) of 2.14.

`O=[N+]([O-])c1ccc(C=Cc2nccs2)o1`: the logP was 1.97. `O=c1cn[nH]c(=O)[nH]1`: the logD (pH 7.4) is -1.37.

As for `CNc1ccccn1`, the lipophilicity (logP) turned out to be 1.07. On to `Cc1c(N(C)C)c(=O)n(C)c(=O)n1C`, for which the pH-dependent lipophilicity (logD) (pH 7.4) came to 0.99. In the case of `N#CN=[N+]([O-])c1cccc([N+](=O)[O-])c1`, the log partition coefficient (logP) is 1.45.

As to `COc1ccccc1OC(C)=O`, the lipophilicity (logP) was 1.38.

Take `CCOC(=O)C(O)c1ccccc1` (stereo unspecified): the logP is 1.53.

As to `C=CC=O`, the logP is -0.01.

In the case of `S=c1cccc[nH]1`, the lipophilicity (logP) is -0.13. In turn, `N#CN=[N+]([O-])c1cccc(C#N)c1` came in with a lipophilicity (logP) of 1.15. `CCc1n[nH]c(=O)[nH]c1=O`: the logP was 0.22. In the case of `CCOP(=S)(OCC)SCSCC`, the logP was determined as 3.24. With `O=C1CC(=O)NC(=O)N1`, the logD (pH 2.0) was -1.41. `C=C1C(=O)O[C@@H]2/C=C(\C)CC/C=C(\C)CC[C@@H]12` returned a lipophilicity (logP) of 2.09. `CCC(C)(C)C` gave a lipophilicity (logP) of 3.82. For the setting “pH 13.0”, `COc1cccc(Cc2cnc(N)nc2N)c1OC` gave a log distribution coefficient (logD) of 1.62.

Turning to `Cc1nnc(C)s1`, the logP was 0.03. The compound `O=[N+]([O-])c1ccc(C=Cc2nccn2Cc2ccncc2)o1` registered a logP of 1.67. On the same count and under the same terms, the result for `CCCS` reads 1.81; that for `CCCCC1C(=O)NC(=O)NC1=O`, 0.77; that for `CCC(C)c1ccccc1OCC(=O)O` (stereo unspecified), 3.32. As for `c1cncc([C@@H]2CCCCN2)c1`, the logD (pH 11.0) worked out at 0.97. Consider `CCCCC1CC(C(=O)NC(C(C)O)C2OC(SC)C(O)C(O)C2O)N(CC)C1` (stereo unspecified), for which the logD (pH 12.0) was determined as 1.76. Regarding `CN(C)/N=N/c1cn([C@@H]2O[C@H](CO)[C@@H](O)[C@H]2O)c(=O)[nH]c1=O`, the logP is -1.82. The same measure, in the same setting: with `CCOC(=O)C(=Cc1cccc(OCC)c1)C(=O)OCC` the figure was 3.39; with `CCOC(=O)C(=Cc1ccc(Cl)cc1)C(=O)OCC`, 3.96. Compound `O=C(NCC(O)c1ccc([N+](=O)[O-])cc1)C(F)(F)F` (stereo unspecified) yielded a logP of 1.46. Same read-out and setting: with `FC(F)OC(Cl)C(F)(F)F` (stereo unspecified) the figure was 2.06. Turning to `COP(=O)(OC)OC`, the logP is -0.52. The compound `O=NN(CCCl)C(=O)NC1CCC(O)CC1` (stereo unspecified) returned a logP of 1.11. Still for that read-out and setting: with `COc1ccccc1C=C(C(C)=O)C(C)=O` the figure was 1.73.

`CSc1ccccc1NC(C)=O` yielded a log partition coefficient (logP) of 1.53. The same measure, in the same setting: the result for `C=COCC` reads 1.04. On to `NC(=O)c1ccc(C(F)(F)F)cc1`, for which the logP worked out at 1.71. With `c1cncc(CN2CCCCC2)c1`, the log distribution coefficient (logD) (pH 11.0) is 1.49. In turn, `COc1cccc(C(N)=O)c1` registered a logP of 0.85. `CCCCOc1cccc(N2C(N)=NC(N)=NC2(C)C)c1` returned a logD (pH 13.0) of 2.03. The compound `CCOC(=O)C(=Cc1ccc(O)c(OC)c1)C(=O)OCC` registered a logP of 2.89.

As for `c1ccc2nc3ccccc3nc2c1`, the logP came to 2.84. Compound `CC1=NCCN1` displayed a logP of 0.52.

Under “pH 7.0”, `CC(=O)c1ccc(C(C)=O)cc1` came in with a log distribution coefficient (logD) of 1.34. For the compound `O=C1c2ccccc2-c2ccccc21`, the logP was 3.58. On to `Oc1cccnc1`, for which the log partition coefficient (logP) was 0.48.

For the compound `O=[N+]([O-])c1cc[n+]([O-])cc1`, the logP is -0.55. As for `OC[C@H]1O[C@@H](n2cnc3c(=S)nc[nH]c32)[C@H](O)[C@@H]1O`, the log distribution coefficient (logD) (pH 7.4) is -0.6. Take `CSc1ccc2c(c1)C(c1ccccc1)=NCC(=O)N2`: the pH-dependent lipophilicity (logD) (pH 7.4) turned out to be 2.92.

In turn, `CNC(=O)N(C)c1ccccc1` yielded a lipophilicity (logP) of 1.02.

On to `NC(=O)c1ccccc1Br`, for which the lipophilicity (logP) stood at 0.73. Turning to `CC(C)Oc1ccccc1O`, the logP is 2.09. Same read-out and setting: with `CCCCS` the figure was 2.28; with `CCOC(=O)C(=Cc1ccccc1Cl)C(=O)OCC`, 3.15. Consider `CCCOc1cn[nH]c1`, for which the logP is 1.42.

`c1ccc(COc2ccccc2)cc1` displayed a lipophilicity (logP) of 3.79. Still for that read-out and setting: with `CS(=O)(=O)N(c1ccccc1)S(C)(=O)=O` the figure was 0.62; with `O=C(O)CCS`, 0.43. `N=c1ccn2c(n1)OC1C(O)C(CO)OC12` (stereo unspecified): the log distribution coefficient (logD) (pH 11.0) was -2.37. The compound `c1cnc2[nH]ccc2c1` showed a logP of 1.82.

`CCCC(=O)Nc1ccccc1` gave a logP of 2.05. The compound `CCOC(=O)C(=Cc1cccc(C)c1)C(=O)OCC` came in with a logP of 3.55. On to `CS(=O)(=O)c1cccc([N+](=O)[O-])c1`, for which the pH-dependent lipophilicity (logD) (pH 7.0) turned out to be 0.5. On to `C=CCNC(=O)NCC=C`, for which the log partition coefficient (logP) amounted to 0.64. Still for that read-out and setting: the result for `Cc1ccco1` reads 1.85. Still for that read-out and setting: with `CC(=O)OCC(COC(C)=O)OC(C)=O` the figure was 0.25.

On to `O=S1(=O)NC=Nc2cc(Cl)ccc21`, for which the logP was found to be 1.01. Where the note is “pH 1.0”, `CC(=O)c1c(O)oc(=O)c(/C(C)=N/c2ccccc2)c1O` had a logD of 2.58. For `CNP(=O)(OC)Oc1ccc(Cl)cc1` (stereo unspecified), the logP is 1.85. Compound `CN(C)/N=N/c1cccc(C(F)(F)F)c1` registered a log partition coefficient (logP) of 3.78. On the same count and under the same terms, the result for `CCC(=O)c1ccncc1` reads 0.77. On the same count and under the same terms, the result for `NC(=O)Nc1cccc(NC(N)=O)c1` reads 0.58. `COc1ccc(OC)c(Cc2cnc3nc(N)nc(N)c3c2C)c1`: where the note is “pH 13.0”, the log distribution coefficient (logD) came out at 2.13. As to `CN(C)CCc1cccnc1`, for the setting “pH 11.0”, the pH-dependent lipophilicity (logD) was determined as 0.82. For `CCCC(=O)Nc1ccc(Cl)c(Cl)c1`, the logP was 3.77. On to `COC(=O)NS(=O)(=O)c1ccc(N)cc1`, for which the logP is -0.27. `CC(=O)N(c1ccccc1)c1ccccc1` displayed a logP of 2.05. `CC1(C)N=C(N)N=C(N)N1c1ccc(F)cc1`: the logD (pH 13.0) turned out to be 0.37. `O=C1C=CCCC1`: the logP came out at 0.61. On the same count and under the same terms, with `CN(C)CCc1ccsc1` the figure was 1.94; with `CCCCC1OC(=O)c2cc(Br)ccc21` (stereo unspecified), 4.24. On the same count and under the same terms, with `O=S1(=O)Nc2ccccc2N1` the figure was 1.12. Still for that read-out and setting: the result for `CCC(=O)Nc1ccccc1` reads 1.61. The compound `CC12CCC(=O)C=C1CCC1C2CCC2(C)C1CCC21CCC(=O)O1` (stereo unspecified) yielded a pH-dependent lipophilicity (logD) (pH 7.4) of 2.75.

As for `c1ccn2nnnc2c1`, the lipophilicity (logP) was -0.09. On to `CCCCC(=O)c1ccc[nH]1`, for which the logP stood at 2.42. In the case of `N#C/C(=C\c1ccccc1)C(N)=O`, the logP was 1.5. `O=[N+]([O-])c1ccccc1C(F)(F)F` registered a logP of 2.58. On to `CSc1ccccc1/N=N/N(C)C`, for which the logD (pH 7.4) is 3.13. As for `CSC(=O)Nc1ccc(Cl)c(Cl)c1`, the lipophilicity (logP) was determined as 4.23.

Compound `c1cncc(CN2CCOCC2)c1` gave a log distribution coefficient (logD) (pH 11.0) of 0.04.

For the compound `CP(C)c1ccccc1`, the logP turned out to be 2.57.

Compound `Cc1ccc2[nH]c(C(O)C(O)c3nc4cc(C)ccc4[nH]3)nc2c1` (stereo unspecified) showed a log partition coefficient (logP) of 1.27. Same read-out and setting: the result for `CN(C)C(=O)c1ccoc1` reads 0.24. As for `N=C(N)NS(=O)(=O)c1ccc(N)cc1`, the logP is -1.22.

Compound `Nc1c2ccccc2nc2ccccc12` registered a logP of 2.74. `CC(=O)C(=Cc1ccc(F)cc1)C(C)=O` displayed a lipophilicity (logP) of 1.65. In the case of `c1ccc(-c2nc3ccccc3s2)cc1`, the lipophilicity (logP) was 4.26.

For the compound `CCC(C)NC(=O)C(=Cc1ccccc1)c1ccccc1` (stereo unspecified), the logP was determined as 4.05. `O=C(CO)OCc1ccccc1` yielded a lipophilicity (logP) of 1.12. Still for that read-out and setting: the result for `O=C1C(NCCO)=C(N2CC2)C(=O)C(NCCO)=C1N1CC1` reads -1.48; that for `CCCCC1OC(=O)c2cc(O)ccc21` (stereo unspecified), 3.12. In turn, `CN(C)CCN(C)C` returned a logP of 0.3. Compound `CN(C)CC(O)c1ccccc1` (stereo unspecified) came in with a logD (pH 13.0) of 1.54.

For `N/N=C1\c2ccccc2C(=O)C1C(=O)C(c1ccccc1)c1ccccc1` (stereo unspecified), the log partition coefficient (logP) was found to be 3.62. `CO[C@H]1C=CO[C@@]2(C)Oc3c(C)c(O)c4c(O)c(c(C=NN5CCNCC5)c(O)c4c3C2=O)NC(=O)C(C)=CC=C[C@H](C)[C@H](O)[C@@H](C)[C@@H](O)[C@@H](C)[C@H](OC(C)=O)[C@@H]1C`: the lipophilicity (logP) worked out at 1.12. The same measure, in the same setting: the result for `CCOC(=O)C(=Cc1cccc([N+](=O)[O-])c1)C(=O)OCC` reads 2.71.
